Source: patent US6727237B2, “Inhibitors of bacterial NAD synthetase” (priority 1998, dated 2004)
pIC50: −log10 of the molar value.

Columns and labels:
[1] = target: T1, bacterial NAD synthetase enzyme (Bacillus subtilis, UniProt P08164); experiment: biochemical; assay type: biochemical
T1 sequence (P08164 2-272 limits assumed): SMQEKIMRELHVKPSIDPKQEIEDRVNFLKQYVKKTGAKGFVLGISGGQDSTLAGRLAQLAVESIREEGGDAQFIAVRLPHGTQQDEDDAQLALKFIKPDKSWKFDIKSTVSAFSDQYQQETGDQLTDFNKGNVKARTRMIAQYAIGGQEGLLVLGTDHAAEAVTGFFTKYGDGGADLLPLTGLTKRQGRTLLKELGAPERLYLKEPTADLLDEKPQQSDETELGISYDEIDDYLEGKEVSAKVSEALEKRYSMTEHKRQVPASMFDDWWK

[2] = system: Staphylococcus epidermitis; experiment: Bacterial growth inhibition screen in LB media (absorbance 595 nm), percent inhibition; conditions: S. epidermitis
[3] = compound at 0.2 mM (Table 312A)

| Compound | % Inhibition [1, 3] [%] | % Inhibition ([2]; concentration screened 10 uM) [%] | % Inhibition ([2]; concentration screened 100 uM) [%] | % Inhibition ([1]; compound at 0.1 mM (Table 314)) [%] | pIC50 ([1]; lead compounds (Table 318A), read-out: IC 50) |
| --- | --- | --- | --- | --- | --- |
| COC(=O)c1ccc2[nH]c(CCC[n+]3cccc4ccccc43)cc2c1 [Compound 486] | 4.97 | 22.28 |  |  |  |
| Fc1cc(F)c2[nH]c(CCC[n+]3ccccc3)cc2c1 [Compound 300] | 11.79 | 6.20 |  |  |  |
| Fc1cc(F)c2[nH]c(CCCCCC[n+]3ccccc3)cc2c1 [Compound 303] | 50.56 |  | 100.00 |  |  |
| COC(=O)c1ccc2c(ccn2CCCCCCCCC[n+]2ccccc2)c1 [Compound 166] | 87.68 | 21.66 |  |  |  |
| CC(C)c1ccc2[nH]c(CCCCC[n+]3ccc4ccccc4c3)cc2c1 [Compound 536] | 32.49 |  | 96.64 |  |  |
| CN(C)c1ccc(C(=O)OCCCCCCCCc2cc3cc(Oc4ccccc4)ccc3[nH]2)cc1 [Compound 620] | 19.03 |  | 12.69 |  |  |
| c1ccc2[nH]c(CCCCC[n+]3cccc4ccccc43)cc2c1 [Compound 392] | 10.89 | 9.61 |  |  |  |
| O=C(c1ccccc1)c1ccc2[nH]c(CCCCCCCC[n+]3ccccc3)cc2c1 [Compound 359] | 35.55 |  | 1.01 |  |  |
| O=[N+]([O-])c1cc([N+](=O)[O-])c2[nH]c(CCCCCC[n+]3ccccc3)cc2c1 [Compound 309] |  |  | 99.07 | 41.47 |  |
| FC(F)(F)c1ccc2[nH]c(CCCCC[n+]3ccc4ccccc4c3)cc2c1 [Compound 578] | 30.96 |  | 97.79 |  |  |
| O=C(OCCCCCCCCc1cc2cc(C(F)(F)F)ccc2[nH]1)c1ccccc1-c1ccccc1 [Compound 614] | 8.32 |  | 20.35 |  |  |
| c1ccc(C(c2ccccc2)(c2ccccc2)c2ccc3[nH]c(CCCC[n+]4cccc5ccccc54)cc3c2)cc1 [Compound 445] | 5.43 | 11.21 |  |  |  |
| c1ccc(C(c2ccccc2)(c2ccccc2)c2ccc3[nH]c(CCCCCCC[n+]4ccc5ccccc5c4)cc3c2)cc1 [Compound 556] |  | 60.18 |  | 18.19 |  |
| Fc1ccc2[nH]c(CCC[n+]3ccccc3)cc2c1 [Compound 342] | 11.92 | 14.97 |  |  |  |
| O=[N+]([O-])c1ccc2[nH]c(CCCCC[n+]3cccc4ccccc43)cc2c1 [Compound 440] | 12.69 | 8.77 |  |  |  |
| c1ccc(-c2ccc3[nH]c(CCCCC[n+]4cccc5ccccc54)cc3c2)cc1 [Compound 434] | 5.36 | 5.64 |  |  |  |
| O=[N+]([O-])c1cc([N+](=O)[O-])c2[nH]c(CCCC[n+]3cccc4ccccc43)cc2c1 [Compound 415] | 7.72 | 1.95 |  |  |  |
| COC(=O)c1ccc2[nH]c(CCCCCCCC[n+]3cccc4ccccc43)cc2c1 [Compound 491] | 8.24 | 11.14 |  |  |  |
| COc1ccc2[nH]c(CCCCC[n+]3cccc4ccccc43)cc2c1 [Compound 482] | 17.07 | 4.39 |  |  |  |
| O=C(c1ccccc1)c1ccc2[nH]c(CCCCCCCOC(=O)C(c3ccccc3)c3ccccc3)cc2c1 [Compound 676] |  | 5.52 |  | 1.46 |  |
| O=C(OCCCCCCCCc1cc2cc(Oc3ccccc3)ccc2[nH]1)c1cccnc1 [Compound 662] | 8.39 | 3.27 |  |  |  |
| Fc1ccc2[nH]c(CCCC[n+]3cccc4ccccc43)cc2c1 [Compound 451] |  | 5.57 |  | 2.94 |  |
| c1ccc(Oc2ccc3[nH]c(CCCC[n+]4cccc5ccccc54)cc3c2)cc1 [Compound 457] | 3.31 | 4.67 |  |  |  |
| O=C(c1ccccc1)c1ccc2[nH]c(CCCCC[n+]3ccc4ccccc4c3)cc2c1 [Compound 572] | 31.02 |  | 96.57 |  |  |
| c1ccc2c[n+](CCCCCCc3cc4ccccc4[nH]3)ccc2c1 [Compound 501] | 4.98 |  | 7.93 |  |  |
| CC(C)c1ccc2[nH]c(CCCCOC(=O)c3ccc(N(C)C)cc3)cc2c1 [Compound 627] | 11.19 |  | 20.10 |  |  |

| Compound | % Inhibition [1, 3] [%] | % Inhibition ([2]; concentration screened 10 uM) [%] | % Inhibition ([2]; concentration screened 100 uM) [%] | % Inhibition ([1]; compound at 0.1 mM (Table 314)) [%] | pIC50 ([1]; lead compounds (Table 318A), read-out: IC 50) |
| --- | --- | --- | --- | --- | --- |
| Fc1ccc2[nH]c(CCCCC[n+]3ccccc3)cc2c1 [Compound 344] | 4.58 | 8.08 |  |  |  |
| COC(=O)c1ccc2[nH]c(CCCCCCC[n+]3ccc4ccccc4c3)cc2c1 [Compound 598] | 43.33 | 8.86 |  |  |  |
| O=[N+]([O-])c1cc([N+](=O)[O-])c2[nH]c(CCC[n+]3ccccc3)cc2c1 [Compound 306] | 33.93 | 4.32 |  |  |  |
| O=C(c1ccccc1)c1ccc2[nH]c(CCCCC[n+]3ccccc3)cc2c1 [Compound 356] | 1.95 |  | 19.29 |  |  |
| FC(F)(F)c1ccc2cc(CCC[n+]3cccc4ccccc43)[nH]c2c1 [Compound 396] |  | 1.53 |  | 3.64 |  |
| O=C(O)c1ccc2[nH]c(CCCCCC[n+]3ccccc3)cc2c1 [Compound 387] |  |  | 97.64 | 29.97 |  |
| COC(=O)c1ccc2[nH]c(CCCCCCCC[n+]3ccc4ccccc4c3)cc2c1 [Compound 599] | 19.31 |  | 44.14 |  |  |
| CN(C)c1ccc(CC(=O)OCCCCCCn2ccc3cc([N+](=O)[O-])ccc32)cc1 [Compound 850] |  | 56.50 |  | 87.46 | 4.10 |
| FC(F)(F)c1ccc2cc(CCCCCC[n+]3ccc4ccccc4c3)[nH]c2c1 [Compound 507] | 26.18 |  | 15.86 |  |  |
| COc1ccc2c(ccn2CCCCCCOC(=O)Cc2ccc([N+](C)(C)C)cc2)c1 [Compound 742] | 28.20 | 2.13 |  |  |  |
| c1ccc(-c2ccc3[nH]c(CCCCC[n+]4ccccc4)cc3c2)cc1 [Compound 326] |  | 6.27 |  | 16.11 |  |
| Fc1cc(F)c2[nH]c(CCCCCC[n+]3ccc4ccccc4c3)cc2c1 [Compound 519] | 16.27 | 11.35 |  |  |  |
| O=C(O)c1ccc2[nH]c(CCC[n+]3cccc4ccccc43)cc2c1 [Compound 492] | 2.59 | 11.00 |  |  |  |
| FC(F)(F)c1ccc2[nH]c(CCCC[n+]3ccccc3)cc2c1 [Compound 361] |  | 5.57 |  | 16.08 |  |
| CC(=O)c1ccc2[nH]c(CCCCCCCOC(=O)c3cccnc3)cc2c1 [Compound 673] | 1.81 | 1.50 |  |  |  |
| Cc1ccc2[nH]c(CCCCCCC[n+]3cccc4ccccc43)cc2c1 [Compound 406] | 10.96 | 6.41 |  |  |  |
| c1ccc(-c2ccc3[nH]c(CCC[n+]4ccc5ccccc5c4)cc3c2)cc1 [Compound 540] | 20.20 | 1.60 |  |  |  |
| CCCCc1ccc2[nH]c(CCC[n+]3ccccc3)cc2c1 [Compound 312] |  | 4.60 |  | 10.25 |  |
| COC(=O)c1ccc2[nH]c(CCCCC[n+]3cccc4ccccc43)cc2c1 [Compound 488] | 17.65 | 2.72 |  |  |  |
| CC(C)c1ccc2[nH]c(CCCCC[n+]3cccc4ccccc43)cc2c1 [Compound 428] | 26.53 | 5.85 |  |  |  |
| O=[N+]([O-])c1ccc2[nH]c(CCCCCCC[n+]3ccc4ccccc4c3)cc2c1 [Compound 550] | 28.18 | 4.40 |  |  |  |
| O=[N+]([O-])c1ccc2[nH]c(CCCC[n+]3cccc4ccccc43)cc2c1 [Compound 439] |  | 30.57 |  | 2.57 |  |
| CN(C)c1ccc(C(=O)OCCCCc2cc3cc(C(=O)c4ccccc4)ccc3[nH]2)cc1 [Compound 645] | 4.31 |  | 9.23 |  |  |
| O=C(O)c1ccc2[nH]c(CCCCCCCC[n+]3ccc4ccccc4c3)cc2c1 [Compound 605] | 68.65 |  | 44.29 |  |  |
| Cc1ccc2[nH]c(CCCC[n+]3cccc4ccccc43)cc2c1 [Compound 403] | 5.07 | 4.87 |  |  |  |
